The values below come from patent US12083101B2, “Biaryl derivatives as YAP/TAZ-TEAD protein-protein interaction inhibitors” (Novartis AG, priority 2020, dated 2024).

Test [1] relates to MKN-45/Ubc-luc cells. Description: Proliferation assay (resazurin), MKN-45. In kind it is cell-based. To be noted: 72 hours incubation. On the procedure: As a specificity control, MKN-45 cells were stably transduced with a Ubc-Luc reporter construct, in which constitutive expression of firefly luciferase is driven by the promoter of the ubiquitin C housekeeping gene.
(§1) Stock solutions of compounds were prepared at a concentration of 10 mM in DMSO and stored at 4° C. Where necessary to afford a full dose-response curve, the stock solutions were pre-diluted in DMSO to 1'000-fold the desired reduced start concentration. On the day after cell seeding, eleven 2-fold serial dilutions of each compound were dispensed directly into the cell assay plates using a HP 300D non-contact Digital Dispenser (TECAN, Mannedorf, Switzerland). The final concentration of DMSO was normalized to 0.1% in all wells.
(§2) The functional effect of compounds on cell proliferation was assessed using NCI-H2052 Tet-On shYAP_2371 pLenti6 MCAT_Luc and MKN-45/Ubc-luc cells by quantifying the reducing capacity of live cells using the redox indicator dye resazurin. […] For data analysis, the assay background value determined in wells containing medium, but no cells, was subtracted from all data points. […] The effect of a particular test compound concentration on cell proliferation/viability was expressed as percentage of day 0-corrected fluorescence reading obtained for cells treated with vehicle only (DMSO, final concentration 0.1%), which was set as 100%, whereas the fluorescence reading for wells containing medium only, but no cells, was set as −100%. Compound concentrations leading to half-maximal growth inhibition (GI50) were determined using standard four parameter curve fitting.

Test [2] deals with MKN-45/Ubc-luc cells. In words: Reporter gene specificity control (Ubc-luciferase), MKN-45. The note with it: for IC50: Homo sapiens, MKN-45, 24 h, read-out: Reporter gene assay MKN-45 IC50 [μM], MKN-45/Ubc-luc cells (YAP deleted, specificity control), 24 hours incubation.
In test [3] the test system is NCI-H2052 Tet-On shYAP_2371 pLenti6 MCAT_Luc cells. Description: Proliferation assay (resazurin), NCI-H2052. Format: cell-based. The note with it: 72 hours incubation. On the procedure:
(§3) This cell line was also transduced with a Tet-pLKO-puro-based construct mediating tetracycline-inducible expression of a short-hairpin directed against the 3′UTR of the YAP1 mRNA (5′-[…]-3′).
as §1, §2

Test [4] has as its system NCI-H2052 Tet-On shYAP_2371 pLenti6 MCAT_Luc cells (YAP-dependent transcription). In words: YAP reporter gene activity assay (MCAT-luciferase), NCI-H2052. Format: cell-based. The note with it: 24 hours incubation, BrightGlo luminescence. On the procedure:
as §3, §1
The ability of compounds to inhibit YAP-dependent transcription was assessed in NCI-H2052 Tet-On shYAP_2371 pLenti6 MCAT_Luc cells, while specificity (lack of unspecific inhibition of luciferase expression of activity) was assessed in MKN-45/Ubc-luc cells. […] Following incubation for 24 hours at 37° C., compound-mediated modulation of reporter-gene activity was quantified 5 min after addition of 20 μl BrightGlo (Promega, Cat #E2620), by measuring luminescence intensity on a multi-mode plate-reader (TECAN, Männedorf, Switzerland, Integration time 100 ms). For data analysis, the assay background value determined in wells containing medium, but no cells, was subtracted from all data points. Dose-dependent compound effects were expressed as % of vehicle-treated control (luminescence signal produced by cells receiving DMSO only) and IC50s calculated using a four-parametric fit model.

For test [5], the target named is Avi-humanTEAD4 217-434 / Cy5 labeled humanYAP 60-100 (Homo sapiens (Human), UniProt Q15561). Description: TR-FRET YAP-TEAD4 in-vitro biochemical assay. Format: binding. To be noted: 1 nM Avi-humanTEAD4 217-434, 20 nM Cy5-humanYAP 60-100, 1 h room temperature.
Sequence of Avi-humanTEAD4 217-434 / Cy5 labeled humanYAP 60-100 (Q15561 217-434): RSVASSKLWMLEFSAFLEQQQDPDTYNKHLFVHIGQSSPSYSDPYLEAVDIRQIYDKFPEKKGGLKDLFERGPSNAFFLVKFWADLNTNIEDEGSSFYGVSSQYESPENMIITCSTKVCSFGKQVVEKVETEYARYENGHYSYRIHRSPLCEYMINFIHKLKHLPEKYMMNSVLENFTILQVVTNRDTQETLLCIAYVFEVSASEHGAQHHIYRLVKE

Molecules are shown by their SMILES. pIC50: −log10 of the molar value. Read-outs that look alike come from different tables or passages of the source. A value given as a limit tells only on which side of the number the result lay.

With `COCCOc1ccc(C(N)=O)c(-c2c(Cl)c(F)cc3c2[C@H](C)[C@@](CN)(c2ccccc2)O3)c1F` (atropisomer, axis not shown) [Example 106, 2-((2S,3S,4S)-2-(aminomethyl)-5-chloro-6-fluoro-3-methyl-2-phenyl-2,3-dihydrobenzofuran-4-yl)-3-fluoro-4-(2-methoxyethoxy)benzamide], the concentration for 50% growth inhibition (GI50) is over 10000 nM in the test with MKN-45/Ubc-luc cells [1] (Homo sapiens) and 13 nM in test [3] (Homo sapiens, NCI-H2052, 72 h). In the test on MKN-45/Ubc-luc cells [2], the IC50 was over 10 µM. Also, the pIC50 in test [4] (Homo sapiens, NCI-H2052, 24 h) was 7.85; in test [5], over 9.00.

In the case of `COc1ccc(C(N)=O)c(-c2c(Cl)c(F)cc3c2[C@H](O)[C@@](CN)(c2ccccc2)O3)c1F` (atropisomer, axis not shown) [Example 97, 2-((2S,3S,4S)-2-(Aminomethyl)-5-chloro-6-fluoro-3-hydroxy-2-phenyl-2,3-dihydrobenzofuran-4-yl)-3-fluoro-4-methoxybenzamide], the 50% growth inhibitory concentration (GI50) is over 10000 nM with MKN-45/Ubc-luc cells [1] (Homo sapiens) and 117 nM in test [3] (Homo sapiens, NCI-H2052, 72 h). Besides, the IC50 in the test on MKN-45/Ubc-luc cells [2] is over 10 µM. The pIC50 in test [4] (Homo sapiens, NCI-H2052, 24 h) is 7.19; in test [5], 8.40.

As for `COc1ccc(C(N)=O)c(-c2c(Cl)ccc3c2C[C@@](CN[C@H]2CC[C@H](O)CC2)(c2ccccc2)O3)c1F` (relative stereo) [Example 27a, 2-((2S,4S)-5-Chloro-2-(((trans-4-hydroxycyclohexyl)amino)methyl)-2-phenyl-2,3-dihydrobenzofuran-4-yl)-3-fluoro-4-methoxybenzamide], the values for the GI50 (in the test on MKN-45/Ubc-luc cells [1]; in test [3]) were over 10000 nM and 81 nM, respectively. For the same molecule, the pIC50 in the test on MKN-45/Ubc-luc cells [2] (read-out: Reporter gene assay MKN-45 IC50, MKN-45/Ubc-luc cells (YAP deleted, specificity control), 24 hours incubation) was under 5.00; in test [4], 7.59; in test [5] it was 9.00.

`CS(=O)(=O)[C@H]1CC[C@H](NC[C@@]2(c3ccccc3)Cc3c(cc(F)c(Cl)c3-c3c(C(N)=O)ccc(OC(F)F)c3F)O2)CC1` [Example 54b, 2-((2S,4S)-5-chloro-6-fluoro-2-((((trans)-4-(methylsulfonyl)cyclohexyl)amino)methyl)-2-phenyl-2,3-dihydrobenzofuran-4-yl)-4-(difluoromethoxy)-3-fluorobenzamide]: the GI50 in the test with MKN-45/Ubc-luc cells [1] (Homo sapiens) was over 10000 nM; in test [3] (Homo sapiens, NCI-H2052, 72 h), 258 nM. Besides, the IC50 in the test on MKN-45/Ubc-luc cells [2] was over 10 µM. In addition, the pIC50 in test [4] (Homo sapiens, NCI-H2052, 24 h) was 6.93; in test [5], 7.66.

With `C[C@H]1c2c(cc(F)c(Cl)c2-c2c(C(N)=O)ccc(OCCO)c2F)O[C@]1(CNC1CCC1)c1ccccc1` (atropisomer, axis not shown) [Example 118, 2-((2S,3S,4S)-5-chloro-2-((cyclobutylamino)methyl)-6-fluoro-3-methyl-2-phenyl-2,3-dihydrobenzofuran-4-yl)-3-fluoro-4-(2-hydroxyethoxy)benzamide], the 50% growth inhibitory concentration (GI50) is over 5500 nM in the test with MKN-45/Ubc-luc cells [1] (Homo sapiens) and 15 nM in test [3] (Homo sapiens, NCI-H2052, 72 h). The IC50 in the test on MKN-45/Ubc-luc cells [2] is over 5.5 µM. Further, the pIC50 in test [4] (Homo sapiens, NCI-H2052, 24 h) was 8.00; in test [5], 9.00.

`C[C@H](O)COc1ccc(C(N)=O)c(-c2c(Cl)c(F)cc3c2C[C@](c2ccccc2)([C@@H]2CCCN2)O3)c1F` (atropisomer, axis not shown) [Example 152, 2-((2S,4S)-5-Chloro-6-fluoro-2-phenyl-2-((S)-pyrrolidin-2-yl)-2,3-dihydrobenzofuran-4-yl)-3-fluoro-4-((S)-2-hydroxypropoxy)benzamide]: the 50% growth inhibitory concentration (GI50) in the test with MKN-45/Ubc-luc cells [1] (Homo sapiens) was over 10000 nM; in test [3] (Homo sapiens, NCI-H2052, 72 h) it was 25 nM. For the same molecule, the IC50 in the test on MKN-45/Ubc-luc cells [2] is over 10 µM. Besides, the pIC50 was 7.44 in test [4] (Homo sapiens, NCI-H2052, 24 h) and 8.70 in test [5].

For `NC(=O)c1ccc(OC(F)F)c(F)c1-c1c(Cl)c(F)cc2c1C[C@@](CN[C@H]1CC[C@@H](O)[C@H](F)C1)(c1ccccc1)O2` (atropisomer, axis not shown) [Example 81a, 2-((2S,4S)-5-chloro-6-fluoro-2-((((1S,3R,4R)-3-fluoro-4-hydroxycyclohexyl)amino)methyl)-2-phenyl-2,3-dihydrobenzofuran-4-yl)-4-(difluoromethoxy)-3-fluorobenzamide], the GI50 in the test on MKN-45/Ubc-luc cells [1] (Homo sapiens) is over 10000 nM; in test [3] (Homo sapiens, NCI-H2052, 72 h), 467 nM. Further, the IC50 in the test with MKN-45/Ubc-luc cells [2] was over 10 µM. Also, the negative logarithm of the IC50 (pIC50) in test [4] (Homo sapiens, NCI-H2052, 24 h) is 6.64; in test [5], 7.48.

For `COc1ccc(C(N)=O)c(-c2c(Cl)ccc3c2[C@H](O)[C@@](CN)(c2ccccn2)O3)c1F` (atropisomer, axis not shown) [Example 89, 2-((2R,3S,4S)-2-(Aminomethyl)-5-chloro-3-hydroxy-2-(pyridin-2-yl)-2,3-dihydrobenzofuran-4-yl)-3-fluoro-4-methoxybenzamide], the 50% growth inhibitory concentration (GI50) with MKN-45/Ubc-luc cells [1] (Homo sapiens) was over 10000 nM; in test [3] (Homo sapiens, NCI-H2052, 72 h), 1600 nM. Also, the IC50 with MKN-45/Ubc-luc cells [2] is over 10 µM. Also, the pIC50 is 6.22 in test [4] (Homo sapiens, NCI-H2052, 24 h) and 7.72 in test [5].

With `CNC(=O)c1ccc(OC)c(F)c1-c1c(Cl)ccc2c1C[C@@](CN)(c1ccccc1)O2` (atropisomer, axis not shown) [Example 22, 2-((2S,4S)-2-(Aminomethyl)-5-chloro-2-phenyl-2,3-dihydrobenzofuran-4-yl)-3-fluoro-4-methoxy-N-methylbenzamide], the concentration for 50% growth inhibition (GI50) is over 10000 nM in the test on MKN-45/Ubc-luc cells [1] (Homo sapiens) and 256 nM in test [3] (Homo sapiens, NCI-H2052, 72 h). Also, the IC50 in the test on MKN-45/Ubc-luc cells [2] is over 20 µM. Besides, the negative logarithm of the IC50 (pIC50) was 6.80 in test [4] (Homo sapiens, NCI-H2052, 24 h) and 8.05 in test [5].

Regarding `COc1cccc([C@@]2(CN)Oc3ccc(Cl)c(-c4c(C(N)=O)ccc(OC(F)F)c4F)c3[C@@H]2O)n1` (atropisomer, axis not shown) [Example 90, 2-((2R,3S,4S)-2-(Aminomethyl)-5-chloro-3-hydroxy-2-(6-methoxypyridin-2-yl)-2,3-dihydrobenzofuran-4-yl)-4-(difluoromethoxy)-3-fluorobenzamide], the GI50 was over 10000 nM in the test with MKN-45/Ubc-luc cells [1] (Homo sapiens) and 1700 nM in test [3] (Homo sapiens, NCI-H2052, 72 h). Moreover, the IC50 with MKN-45/Ubc-luc cells [2] is over 10 µM. Also, the pIC50 in test [4] (Homo sapiens, NCI-H2052, 24 h) is 5.84; in test [5], 7.66.

Regarding `COCCOc1ccc(C(N)=O)c(-c2c(Cl)c(F)cc3c2[C@H](C)[C@](c2ccccc2)(C(C)N)O3)c1F` (stereo partly drawn) [Example 169, 2-((2S,3S,4S)-2-(1-Aminoethyl)-5-chloro-6-fluoro-3-methyl-2-phenyl-2,3-dihydrobenzofuran-4-yl)-3-fluoro-4-(2-methoxyethoxy)benzamide], the GI50 in the test with MKN-45/Ubc-luc cells [1] (Homo sapiens) was determined as 7830 nM; in test [3] (Homo sapiens, NCI-H2052, 72 h), 246 nM. Further, in the test on MKN-45/Ubc-luc cells [2], the IC50 was over 10 µM. The pIC50 in test [4] (Homo sapiens, NCI-H2052, 24 h) is 6.82; in test [5], 8.15.

Turning to `C[C@H]1c2c(cc(F)c(Cl)c2-c2c(OCCO)ccc(F)c2F)O[C@]1(CN)c1ccccc1` (atropisomer, axis not shown) [Example 124, 2-(2-((2S,3S,4S)-2-(Aminomethyl)-5-chloro-6-fluoro-3-methyl-2-phenyl-2,3-dihydrobenzofuran-4-yl)-3,4-difluorophenoxy)ethan-1-ol], the GI50 with MKN-45/Ubc-luc cells [1] (Homo sapiens) was over 10000 nM; in test [3] (Homo sapiens, NCI-H2052, 72 h), 1070 nM. Also, in the test on MKN-45/Ubc-luc cells [2], the IC50 was over 10 µM. The negative logarithm of the IC50 (pIC50) in test [4] (Homo sapiens, NCI-H2052, 24 h) is 5.91; in test [5], 7.96.

Regarding `C[C@H]1c2c(cc(F)c(Cl)c2-c2c(C(N)=O)ccc(OCCO)c2F)O[C@]1(CN[C@H]1CC[C@@](C)(O)CC1)c1ccccc1` (atropisomer, axis not shown) [Example 117b, 2-((2S,3S,4S)-5-chloro-6-fluoro-2-((((cis)-4-hydroxy-4-methylcyclohexyl)amino)methyl)-3-methyl-2-phenyl-2,3-dihydrobenzofuran-4-yl)-3-fluoro-4-(2-hydroxyethoxy)benzamide], the GI50 in the test on MKN-45/Ubc-luc cells [1] (Homo sapiens) was over 10000 nM; in test [3] (Homo sapiens, NCI-H2052, 72 h) it was 30 nM. Further, the IC50 with MKN-45/Ubc-luc cells [2] was over 10 µM. Further, the pIC50 was 7.80 in test [4] (Homo sapiens, NCI-H2052, 24 h) and 9.00 in test [5].
